Results as given in patent publication US12528812B2 (Genentech, Inc., priority 2020, dated 2026).
Where two headings read alike, the source gives them in different places.

How the values were obtained:
[1] = biological target: Recombinant human JAK2 kinase domain protein (Residues 812-1132) (Homo sapiens, UniProt O60674); test: JAK2 biochemical assay (LabChip mobility shift, Ki); settings: Biochem JAK2 Ki
[2] = system: IL-13-stimulated P-STAT6 in TF-1 human erythroleukemia cells; test: P-STAT6 TF-1 + IL-13 assay (JAK1 pathway); assay type: cell-based; settings: IL13 stimulation, read-out: Cellular JAK1 PSTAT6 TF-1 + IL13
Method: (§1) TF-1 human erythroleukemia cells (ATCC′; Manassas, VA; Catalog No. CRL-2003™) were grown in Roswell Park Memorial Institute (RPMI) medium supplemented with 10% heat-inactivated fetal bovine serum (FBS), 2 ng/mL granulocyte-macrophage colony-stimulating factor, 1× non-essential amino acids (NEAA), and 1 mM sodium pyruvate. The day before the assay, the cultures were transferred to Opti-MEM™, 1×NEAA, 1 mM sodium pyruvate, and 0.5% charcoal-stripped FBS (starve medium). Inhibitor stock solutions (5 mM in DMSO) were serially diluted 1:2 in DMSO to generate a 10-point concentration titration (at 500× test concentration), which was further diluted by a 50-fold dilution in Assay Medium (RPMI containing 1×NEAA and 1 mM sodium pyruvate) to generate a 10× concentration titration (in 2% DMSO). The cells (300,000 cells/well in 35 μL of Assay Medium) were seeded in 384-well Greiner plates. Diluted inhibitor at 10× concentration (5 μL) was added to the cells and the plates were incubated for 30 minutes at 37° C. in a humidified incubator. Cells were stimulated with the human recombinant cytokine at the respective EC90 concentrations, as previously determined for each individual lot. For the phosphorylated signal transducer and activator of transcription 6 (P-STAT6) TF-1+Interleukin-13 (IL-13) assay, 10 μL of 250 ng/mL IL-13 (R&D Systems; Minneapolis, MN) was added to the cells, which were then incubated for 10 minutes at 37° C. For the P-STAT5 TF-1+Erythropoietin (EPO) assay, 10 μL of 110 IU/mL EPO (Gibco Life Technologies, Catalog No. PHC2054) was added to the cells, which were then incubated for […] at 37° C. For both assays, the incubation was followed by addition to the cells of 5 μL of ice-cold 10× cell lysis buffer (Cell Signaling Technologies; Danvers, MA; Catalog No. 9803S) containing 1 mM phenylmethylsulfonyl fluoride (PMSF). Assay plates were frozen at −80° C. for a minimum of 1 hour. In the IL-13 assay, P-STAT6 was measured by coating goat anti-rabbit (GAR) plates (Meso Scale Discovery [MSD]; Rockville, MD; Catalog No. MSD L21RA-1) with rabbit anti-human total STAT6 antibody (Cell Signaling Technologies; Catalog No. 9362S), incubating the cell lysates in the coated plates overnight at 4° C., and then detecting with mouse anti-P-STAT6 (Tyr641) Clone 16E12 antibody (MilliporeSigma; Burlington, MA; Catalog No. 05-590, custom labeled by MSD with SULFO-tag) using standard MSD plate processing, washing, and detection protocols. In the EPO assay, P-STAT5 was detected using the phospho-STAT5a,b Whole Cell Lysate Kit (MSD; Catalog No. K150IGD-1). The electrochemiluminescence (ECL) signal of wells was read on the MESO SECTOR 5600 (MSD) reader.
(§2) Data analysis was performed by subtracting the negative control (cytokine stimulated and 20 μM control inhibitor-treated cells) mean ECL value from the ECL value of all wells, determining percent of control for test compound well ECL values relative to the positive control (cytokine stimulated and DMSO-treated cells) mean ECL value, and determining the IC50 for test compounds with a four-parameter logistic fit model as shown in Equation 4.

[3] = system: EPO-stimulated P-STAT5 in TF-1 human erythroleukemia cells; test: P-STAT5 TF-1 + EPO assay (JAK2 pathway); assay type: cell-based; settings: EPO stimulation, read-out: Cellular JAK2 PSTAT5 TF-1 + EPO
Method: as §1, §2

[4] = biological target: T1, recombinant human JAK1 kinase domain protein (Residues 854-1154) (Homo sapiens, UniProt P23458); test: JAK1 biochemical assay (LabChip mobility shift, Ki); settings: read-out: Biochem JAK1 Ki
T1 construct: human JAK1 kinase domain protein (Residues 854-1154); purchased Proteros Biostructures GmbH (Martinsried, Germany); host or cells: insect cells
T1 sequence (P23458 854-1154): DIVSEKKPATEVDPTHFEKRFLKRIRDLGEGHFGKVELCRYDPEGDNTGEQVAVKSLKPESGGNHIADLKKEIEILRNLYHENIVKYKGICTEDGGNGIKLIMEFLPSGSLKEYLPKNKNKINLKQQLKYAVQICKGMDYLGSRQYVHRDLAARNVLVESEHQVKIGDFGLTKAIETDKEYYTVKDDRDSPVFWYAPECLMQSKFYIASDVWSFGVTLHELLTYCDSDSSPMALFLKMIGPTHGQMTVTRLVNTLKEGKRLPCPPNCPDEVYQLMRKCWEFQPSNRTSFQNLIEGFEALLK

[5] = system: IL-13-stimulated STAT6 phosphorylation in human lung bronchial epithelial BEAS-2B cell line; test: P-STAT6 BEAS-2B + IL-13 cell assay; assay type: cell-based; settings: BEAS2B cells, IL13 stimulation, read-out: Cellular JAK1 PSTAT6 BEAS2B + IL13
Outline: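 Phospho-STAT6 (Tyr641) was quantified in lysates by MSD electrochemiluminescence after human IL-13 challenge (250 ng/mL stock, 15 min, 37 °C). Before that, BEAS-2B cells cultured 48 h had 1 h compound exposure over 10 concentrations. Percent of control was fitted to a four-parameter logistic model to give IC50.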

Sequence of Recombinant human JAK2 kinase domain protein (Residues 812-1132) (O60674 812-1132): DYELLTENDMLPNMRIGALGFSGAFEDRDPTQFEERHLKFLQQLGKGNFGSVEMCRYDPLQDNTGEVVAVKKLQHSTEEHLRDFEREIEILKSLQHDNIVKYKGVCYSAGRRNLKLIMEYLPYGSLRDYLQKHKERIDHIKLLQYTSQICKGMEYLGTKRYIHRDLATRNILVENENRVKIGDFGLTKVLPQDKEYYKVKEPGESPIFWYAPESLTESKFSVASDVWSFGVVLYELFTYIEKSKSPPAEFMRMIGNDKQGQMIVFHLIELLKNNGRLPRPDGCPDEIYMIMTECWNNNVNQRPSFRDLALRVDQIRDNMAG

Row | SMILES | Ki [1] [nM] | IC50 ([2]; Homo sapiens, TF-1, TF-1 cells) [nM] | IC50 ([3]; Homo sapiens, TF-1, TF-1 cells) [nM] | Ki [4] [nM] | IC50 ([2]; TF-1 cells) [nM] | IC50 ([3]; TF-1 cells) [nM] | IC50 ([5]; Homo sapiens, BEAS-2B) [nM] | IC50 [5] [nM]
1 | CC(=O)n1cc(Oc2ccc(OC(F)F)c(-c3nn(C)cc3NC(=O)c3cnn4cccnc34)c2)cn1 [Example 192, N-[3-[5-(1-acetylpyrazol-4-yl)oxy-2-(difluoromethoxy)phenyl]-1-methyl-pyrazol-4-yl]pyrazolo[1,5-a]pyrimidine-3-carboxamide] | 0.2 | 3.3 | 2.1 | 0.28 | – | – | 9.3 | –
2 | CN1CCC(n2cc(Oc3ccc(OC(F)F)c(-c4nn(C)cc4NC(=O)c4cnn5cccnc45)c3)cn2)C(O)C1 (stereo not drawn) [Example 186, N-[3-[2-(difluoromethoxy)-5-[1-(3-hydroxy-1-methyl-4-piperidyl)pyrazol-4-yl]oxy-phenyl]-1-methyl-pyrazol-4-yl]pyrazolo[1,5-a]pyrimidine-3-carboxamide] | 0.39 | 22 | 58 | 0.76 | – | – | 48 | –
3 | CN1CC(O)C(n2cc(Oc3ccc(OC(F)F)c(-c4nn(C)cc4NC(=O)c4cnn5cccnc45)c3)cn2)C1 (stereo not drawn) [Example 179, N-[3-[2-(difluoromethoxy)-5-[1-(4-hydroxy-l-methyl-pyrrolidin-3-yl)pyrazol-4-yl]oxy-phenyl]-1-methyl-pyrazol-4-yl]pyrazolo[1,5-a]pyrimidine-3-carboxamide] | 0.4 | – | – | 0.82 | 92 | 72 | – | 50
4 | Cn1cc(NC(=O)c2cnn3cccnc23)c(-c2cc(Oc3cnn(CCO)c3)ccc2OC(F)F)n1 [Example 113, N-[3-[2-(difluoromethoxy)-5-[1-(2-hydroxyethyl)pyrazol-4-yl]oxy-phenyl]-1-methyl-pyrazol-4-yl]pyrazolo[1,5-a]pyrimidine-3-carboxamide] | 0.14 | 7 | 13 | 0.3 | – | – | 20 | –
5 | CN1CCC(n2cc(Oc3ccc(OC(F)F)c(-c4nn(C)cc4NC(=O)c4cnn5cccnc45)c3)cn2)C(O)C1 (stereo not drawn) [Example 187, N-[3-[2-(difluoromethoxy)-5-[1-(3-hydroxy-1-methyl-4-piperidyl)pyrazol-4-yl]oxy-phenyl]-1-methyl-pyrazol-4-yl]pyrazolo[1,5-a]pyrimidine-3-carboxamide] | 0.24 | – | – | 0.35 | 34 | 38 | – | 44
6 | Cn1cc(NC(=O)c2cnn3cccnc23)c(-c2cc(Oc3cnn(C4COC4)c3)ccc2OC(F)F)n1 [Example 114, N-[3-[2-(difluoromethoxy)-5-[1-(oxetan-3-yl)pyrazol-4-yl]oxy-phenyl]-1-methyl-pyrazol-4-yl]pyrazolo[1,5-a]pyrimidine-3-carboxamide] | 0.49 | 6 | 29 | 0.84 | – | – | 29 | –

Further lines, with some results ahead:

Row | Ki [1] [nM] | IC50 ([2]; Homo sapiens, TF-1, TF-1 cells) [nM] | IC50 ([3]; Homo sapiens, TF-1, TF-1 cells) [nM] | Ki [4] [nM] | IC50 ([2]; TF-1 cells) [nM] | IC50 ([3]; TF-1 cells) [nM] | SMILES | IC50 ([5]; Homo sapiens, BEAS-2B) [nM] | IC50 [5] [nM]
7 | 0.24 | 4.6 | 7.6 | 0.4 | – | – | Cn1cc(NC(=O)c2cnn3cccnc23)c(-c2cc(Oc3cnn(C(F)F)c3)ccc2OC(F)F)n1 [Example 132, N-[3-[2-(difluoromethoxy)-5-[1-(difluoromethyl)pyrazol-4-yl]oxy-phenyl]-1-methyl-pyrazol-4-yl]pyrazolo[1,5-a]pyrimidine-3-carboxamide] | 14 | –
8 | 0.6 | 8.4 | 15 | 0.58 | – | – | Cn1cc(NC(=O)c2cnn3cccnc23)c(-c2cc(Oc3cccc(C4CNCCO4)c3)ccc2OC(F)F)n1 (stereo not drawn) [Example 82, N-[3-[2-(difluoromethoxy)-5-(3-morpholin-2-ylphenoxy)phenyl]-1-methyl-pyrazol-4-yl]pyrazolo[1,5-a]pyrimidine-3-carboxamide] | 51 | –
9 | 0.36 | 3 | 23 | 0.69 | – | – | Cn1ccc(Oc2ccc(OC(F)F)c(-c3nn(C)cc3NC(=O)c3cnn4cccnc34)c2)n1 [Example 143, N-[3-[2-(difluoromethoxy)-5-(1-methylpyrazol-3-yl)oxy-phenyl]-1-methyl-pyrazol-4-yl]pyrazolo[1,5-a]pyrimidine-3-carboxamide] | 26 | –
10 | 0.07 | 2.1 | 3.6 | 0.1 | – | – | Cn1cc(NC(=O)c2cnn3cccnc23)c(-c2cc(Oc3cn[nH]c3)ccc2OC(F)F)n1 [Example 160, N-[3-[2-(difluoromethoxy)-5-(1H-pyrazol-4-yloxy)phenyl]-1-methyl-pyrazol-4-yl]pyrazolo[1,5-a]pyrimidine-3-carboxamide] | 8.3 | –
11 | 0.34 | 14 | 21 | 0.46 | – | – | CC(C)N1CC(O)(Cn2cc(Oc3ccc(OC(F)F)c(-c4nn(C)cc4NC(=O)c4cnn5cccnc45)c3)cn2)C1 [Example 201, N-[3-[2-(difluoromethoxy)-5-[1-[(3-hydroxy-1-isopropyl-azetidin-3-yl)methyl]pyrazol-4-yl]oxy-phenyl]-1-methyl-pyrazol-4-yl]pyrazolo[1,5-a]pyrimidine-3-carboxamide] | 34 | –
12 | 1 | 180 | 130 | 1.4 | – | – | CN1CC(O)(c2cccc(Oc3ccc(OC(F)F)c(-c4nn(C)cc4NC(=O)c4cnn5cccnc45)c3)n2)C1 [Example 190, N-[3-[2-(difluoromethoxy)-5-[[6-(3-hydroxy-l-methyl-azetidin-3-yl)-2-pyridyl]oxy]phenyl]-1-methyl-pyrazol-4-yl]pyrazolo[1,5-a]pyrimidine-3-carboxamide] | 38 | –
